Data as given in patent publication US20230330120A1, “COMPOSITION FOR PREVENTING HAIR LOSS OR PROMOTING HAIR REGROWTH” (LG HOUSEHOLD & HEALTH CARE LTD., priority 2020, published 2023).
Where two headings read alike, the source gives them in different places.

Legend:
[1] = tested on: human-derived dermal papilla cells (DPCs); test: Proliferation of dermal papilla cells (CCK-8); assay type: cell-based; settings: for activity at 2 µg/mL / activity at 20 µg/mL: read-out: Proliferation of dermal papilla cells (%)
Description: The effect of promoting the proliferation of dermal papilla cells was investigated using human-derived dermal papilla cells (DPCs). The human-derived dermal papilla cells were purchased from PromoCell. The DPCs were cultured using a medium (follicle dermal papilla cell growth medium; PromoCell, Heidelberg, Germany) and a medium additive (supplement mix; PromoCell, Heidelberg, Germany) recommended by PromoCell under the condition of 37° C. and 5% CO2. The cultured DPCs were seeded onto a 96-well plate at 3,000 cells/well and then cultured for 24 hours under 0.1% serum condition. Then, the cultured cells were incubated for 1 day after treating with DMSO diluted with serum-free DMEM to 1:1000 (vehicle), 0.1 μg/mL minoxidil as a positive control group, or at 2 or 20 μg/mL valechlorine, tussilagone, periplocin, lysionotin, nitidine, lanosterol, engeletin, specnuezhenide, praeruptorin B, rotundic acid, sesamoside or polyphyllin VII. After the incubation, cell proliferation was evaluated by the CCK method. CCK-8 was treated to a medium at 1:10 and then incubated for 1 hour. 1 hour later, the absorbance of each well was measured at 450 nm. All experiments were repeated 3 times and the average of absorbance was calculated. The control group was set at 100%, and the results were represented as a percentage compared to the control group.

[2] = tested on: β-catenin; test: Expression of β-catenin protein in dermal papilla cells (SDS-PAGE / anti-β-catenin antibody); assay type: cell-based, human; settings: for activity at 2 µg/mL / activity at 20 µg/mL: Homo sapiens, 24 h, read-out: Expression level of β-catenin protein (%)
Description: Human dermal papilla cells were seeded onto a 6-well plate at 500,000 cells/well and then incubated for 1 day after treating with 2 or 20 μg/mL valechlorine, tussilagone, periplocin, lysionotin, nitidine, lanosterol, engeletin, specnuezhenide, praeruptorin B, rotundic acid, sesamoside or polyphyllin VII. After the incubation, the cells were lysed using an M-PER lysis buffer and a cell lysate of the same volume was loaded on SDS-PAGE gel. After transferring the cell lysate loaded on the SDS-PAGE gel to a nitrocellulose membrane, proteins were detected by attaching anti-β-catenin antibodies to the nitrocellulose membrane. GAPDH was used as a control for calibrating the quantity of proteins. The amount of β-catenin increased by the valechlorine, tussilagone, periplocin, lysionotin, nitidine, lanosterol, engeletin, specnuezhenide, praeruptorin B, rotundic acid, sesamoside or polyphyllin VII was investigated. The control group was set at 100%, and the results were represented as a percentage compared to the control group as shown in Table 5.

[3] = tested on: β-catenin; test: as above; assay type: cell-based, human; settings: 0.5 μg/mL (positive control); control group = 100%
[4] = 2 μg/mL, 1 day, control group = 100%, GAPDH calibration
[5] = 20 μg/mL, 1 day, control group = 100%, GAPDH calibration
[6] = Homo sapiens, 24 h, 2 μg/mL, 1 day, control group = 100%
[7] = Homo sapiens, 24 h, 20 μg/mL, 1 day, control group = 100%

Row | Molecule | activity at 2 µg/mL [1, 6] [%] | activity at 20 µg/mL [1, 7] [%] | activity at 2 µg/mL [2, 4] [%] | activity at 20 µg/mL [2, 5] [%] | further results
1 | Engeletin | – | – | – | – | Proliferation of dermal papilla cells (%) ([1]; 2 μg/mL, 1 day, control group = 100%): 143.2%; Proliferation of dermal papilla cells (%) ([1]; 20 μg/mL, 1 day, control group = 100%): 188.1%; Expression level of β-catenin protein (%) [2, 4]: 231.1%; Expression level of β-catenin protein (%) [2, 5]: 276.3%
2 | COc1ccc(-c2cc(=O)c3c(O)c(OC)c(O)c(OC)c3o2)cc1 [Lysionotin] | 164 | 179 | 210 | 232 | –
3 | CC(C)=CCC[C@@H](C)[C@H]1CC[C@@]2(C)C3=C(CC[C@]12C)[C@@]1(C)CC[C@H](O)C(C)(C)[C@@H]1CC3 [Lanosterol] | 143 | 189 | 241 | 246 | –
4 | C/C=C(\C)C(=O)OC1c2c(ccc3ccc(=O)oc23)OC(C)(C)C1OC(=O)/C(C)=C/C (stereo not drawn) [Praeruptorin B] | – | – | – | – | activity at 2 µg/mL ([1]; Homo sapiens, 24 h): 144%; activity at 20 µg/mL ([1]; Homo sapiens, 24 h): 173%; activity at 2 µg/mL [2]: 211%; activity at 20 µg/mL [2]: 250%
5 | CC(=O)OCC1=CO[C@@H](OC(=O)CC(C)C)[C@H]2C1=C[C@H](OC(=O)CC(C)C)[C@]2(O)CCl [Valechlorine] | – | – | – | – | activity at 2 µg/mL ([1]; Homo sapiens, 24 h): 146%; activity at 20 µg/mL ([1]; Homo sapiens, 24 h): 159%; activity at 2 µg/mL [2]: 217%; activity at 20 µg/mL [2]: 234%
6 | COc1cc2c[n+](C)c3c4cc5c(cc4ccc3c2cc1OC)OCO5 [Nitidine] | 155 | 181 | 220 | 262 | –
7 | C=C1[C@H](OC(=O)/C=C(\C)CC)C[C@@H](C(C)C)[C@@H]2[C@@H]([C@H](C)OC(C)=O)C(=O)C[C@@H]12 [Tussilagone] | 157 | 178 | 208 | 253 | –
8 | COC(=O)C1=CO[C@@H](O[C@@H]2O[C@H](CO)[C@@H](O)[C@H](O)[C@H]2O)[C@@H]2[C@@]3(C)O[C@H]3[C@@H](O)[C@]12O [Sesamoside] | 168 | 194 | 245 | 295 | –
9 | C[C@@H]1CC[C@]2(C(=O)O)CC[C@]3(C)C(=CC[C@@H]4[C@@]5(C)CC[C@H](O)[C@@](C)(CO)[C@@H]5CC[C@]43C)[C@@H]2[C@]1(C)O [Rotundic acid] | 156 | 183 | 211 | 258 | –
10 | Nc1cc(N2CCCCC2)nc(N)[n+]1[O-] [Minoxidil, reference compound] | – | – | – | – | activity at 0.1 µg/mL ([1]; Homo sapiens, 24 h, 100 ng/ml (positive control), 1 day, control group = 100%): 130%
11 | C/C=C1/[C@H](O[C@@H]2O[C@H](CO)[C@@H](O)[C@H](O)[C@H]2O)OC=C(C(=O)OC)[C@H]1CC(=O)OC[C@H]1O[C@@H](OCCc2ccc(O)cc2)[C@H](O)[C@@H](O)[C@@H]1O [Specnuezhenide] | 150 | 170 | 216 | 289 | –
12 | Wnt3a: Wnt3a protein (positive control group) which binds directly to the receptor of Wnt/β-catenin (protein, UniProt P56704 19-352, looked up) Protein Wnt-3a: SYPIWWSLAVGPQYSSLGSQPILCASIPGLVPKQLRFCRNYVEIMPSVAEGIKIGIQECQHQFRGRRWNCTTVHDSLAIFGPVLDKATRESAFVHAIASAGVAFAVTRSCAEGTAAICGCSSRHQGSPGKGWKWGGCSEDIEFGGMVSREFADARENRPDARSAMNRHNNEAGRQAIASHMHLKCKCHGLSGSCEVKTCWWSQPDFRAIGDFLKDKYDSASEMVVEKHRESRGWVETLRPRYTYFKVPTERDLVYYEASPNFCEPNPETGSFGTRDRTCNVSSHGIDGCDLLCCGRGHNARAERRREKCRCVFHWCCYVSCQECTRVYDVHTCK | – | – | – | – | Expression level of β-catenin protein (%) [3]: 208.8%
